Data on 1 compound can be found in ChEMBL document CHEMBL4680274, “Modulating microRNA Processing: Enoxacin, the Progenitor of a New Class of Drugs” (J Med Chem, 2020).

One data set deals with HCT-116. In words: Anticancer activity against human HCT116 cells incubated for 5 days by MTT assay. Format: functional, cell-based. Conditions: HCT-116, 120 h.
A further data set relates to LNCaP. In words: Growth inhibition of human LNCaP cells incubated for 72 hrs by MTT assay. Format: functional, cell-based.
In a further data set the test system is DU-145. In words: Growth inhibition of human DU145 cells incubated for 72 hrs by MTT assay. Format: functional, cell-based. The conditions noted are these: DU-145, 72 h.
Another data set deals with Zika virus. As to the kind of experiment: Antiviral activity against ZIKV infected in human neural progenitor cells incubated with cells for 24 hrs prior to viral infection followed by replacement of fresh medium containing compound and measured at 48 hrs post infection by RT-PCR method. The conditions noted are these: Neural Progenitor Cell.
A short description of data set [1]: Cytotoxicity against human neural progenitor cell by CellTiter-Glo Luminescent Cell Viability Assay. Format: tissue-based. Conditions: neural progenitor cells.

pEC50, pIC50: −log10 of the molar value.

Turning to `CCn1cc(C(=O)O)c(=O)c2cc(F)c(N3CCNCC3)nc21` [ENOXACIN], the pEC50 in the data set on HCT-116 was 3.91; in the data set with LNCaP, 3.98; with DU-145, 3.85. In addition, the pIC50 in the data set on Zika virus is 4.28. In data set [1], the CC50 turned out to be 176 µM.
